Patent US8084466B2, “Bicyclic heteroaryl-substituted imidazoles as modulators of the histamine H4 receptor” (Janssen Pharmaceutica NV, priority 2007, dated 2011)

Molecular target: T1, human histamine H4 receptor (Homo sapiens, UniProt Q9H3N8)
T1 construct: expressed in transfected cells; host or cells: SK-N-MC cells or COS7 cells, transient transfection with pH4R; cell membranes
Test: Binding Assay on Recombinant Human Histamine H4 Receptor
Settings: competition binding with 3H-histamine (5 nM; KD 5 nM), membranes of SK-N-MC or COS7 cells expressing human H4 receptor; average of results; > = highest value tested
Protocol: Biological Methods: Binding Assay on Recombinant Human Histamine H4 Receptor
SK-N-MC cells or COS7 cells were transiently transfected with pH4R and grown in 150 cm^2 tissue culture dishes. Cells were washed with saline solution, scraped with a cell scraper and collected by centrifugation (1000 rpm, 5 min). Cell membranes were prepared by homogenization of the cell pellet in 20 mM Tris-HCl with a polytron tissue homogenizer for 10 sec at high speed. Homogenate was centrifuged at 1000 rpm for 5 min at 4° C. The supernatant was then collected and centrifuged at 20,000×g for 25 min at 4° C. The final pellet was resuspended in 50 mM Tris-HCl. Cell membranes were incubated with ^3H-histamine (5-70 nM) in the presence or absence of excess histamine (10,000 nM). Incubation occurred at room temperature for […]. Membranes were harvested by rapid filtration over Whatman GF/C filters and washed 4 times with ice-cold 50 mM Tris HCl. Filters were then dried, mixed with scintillant and counted for radioactivity. SK-N-MC or COS7 cells expressing human histamine H4 receptor were used to measure the affinity of binding of other compounds and their ability to displace ^3H-ligand binding by incubating the above-described reaction in the presence of various concentrations of inhibitor or compound to be tested. For competition binding studies using ^3H-histamine, Ki values were calculated, based on an experimentally determined KD value of 5 nM and a ligand concentration of 5 nM, according to Y.-C.

SMILES	Ki [nM]
Cc1c(-c2nc3c(C)c(F)ccc3[nH]2)ccc2c1CCN2CCCC1CCN(C)CC1 [Example 1, 5-Fluoro-4-methyl-2-{4-methyl-1-[3-(1-methyl-pieridin-4-yl)-proyl]-2,3-dihydro-1H-indol-5-yl}-1H-benzoimidazole]	29
Cc1ccc2[nH]c(-c3ccc4c(c3C)CCN4CCCC3CCN(C)CC3)nc2c1C [Example 2, 4,5-Dimethyl-2-{4-methyl-1-[3-(1-methyl-piperidin-4-yl)-propyl]-2,3-dihydro-1H-indol-5-yl}-1H-benzoimidazole]	15
Cc1cc(C)c2nc(-c3ccc4c(c3Cl)CCN4CCCC3CCN(C)CC3)[nH]c2c1 [Example 3, 2-{4-Chloro-1-[3-(1-methyl-piperidin-4-yl)-propyl]-2,3-dihydro-1H-indol-5-yl}-4,6-dimethyl-1H-benzoimidazole]	33
Cc1c(F)ccc2[nH]c(-c3ccc4c(c3Cl)CCN4CCCC3CCN(C)CC3)nc12 [Example 4, 2-{4-Chloro-1-[3-(1-methyl-piperidin-4-yl)-propyl]-2,3-dihydro-1H-indol-5-yl}-5-fluoro-4-methyl-1H-benzoimidazole]	34
COC(=O)c1ccc2[nH]c(-c3ccc4c(c3Cl)CCN4CCCC3CCN(C)CC3)nc2c1 [Example 5, 2-{4-Chloro-1-[3-(1-methyl-piperidin-4-yl)-propyl]-2,3-dihydro-1H-indol-5-yl}-1H-benzoimidazole-5-carboxylic acid methyl ester]	76
Cc1c(F)ccc2[nH]c(-c3ccc4c(c3F)CCN4CCCC3CCN(C)CC3)nc12 [Example 6, 5-Fluoro-2-{4-fluoro-1-[3-(1-methyl-piperidin-4-yl)-propyl]-2,3-dihydro-1H-indol-5-yl}-4-methyl-1H-benzoimidazole]	123
Cc1c(-c2nc3c(C)c(F)ccc3[nH]2)ccc2c1ccn2CCCC1CCN(C)CC1 [Example 7, 5-Fluoro-4-methyl-2-{4-methyl-1-[3-(1-methyl-piperidin-4-yl)-propyl]-1H-indol-5-yl}-1H-benzoimidazole]	29
Cc1c(F)ccc2[nH]c(-c3ccc4c(ccn4CCCC4CCN(C)CC4)c3Cl)nc12 [Example 8, 2-{4-Chloro-1-[3-(1-methyl-piperidin-4-yl)-propyl]-1H-indol-5-yl}-5-fluoro-4-methyl-1H-benzoimidazole]	29
Cc1cc(C)c2nc(-c3ccc4c(ccn4CCCC4CCN(C)CC4)c3Cl)[nH]c2c1 [Example 9, 2-{4-Chloro-1-[3-(1-methyl-piperidin-4-yl)-propyl]-1H-indol-5-yl}-4,6-dimethyl-1H-benzoimidazole]	14
Cc1c(-c2nc3cc(Cl)ccc3[nH]2)ccc2c1ccn2CCCC1CCN(C)CC1 [Example 10, 5-Chloro-2-{4-methyl-1-[3-(1-methyl-piperidin-4-yl)-propyl]-1H-indol-5-yl}-1H-benzoimidazole]	19
Cc1c(F)ccc2[nH]c(-c3ccc4c(ccn4CCCC4CCN(C)CC4)c3)nc12 [Example 11, 5-Fluoro-4-methyl-2-{1-[3-(1-methyl-piperidin-4-yl)-propyl]-1H-indol-5-yl}-1H-benzoimidazole]	77
Cc1cccc2[nH]c(-c3ccc4c(ccn4CCCC4CCN(C)CC4)c3)nc12 [Example 12, 4-Methyl-2-{1-[3-(1-methyl-piperidin-4-yl)-propyl]-1H-indol-5-yl}-1H-benzoimidazole]	120
Cc1c(F)ccc2[nH]c(-c3ccc4c(ccn4CCCN4CCN(C)CC4)c3)nc12 [Example 13, 5-Fluoro-4-methyl-2-{1-[3-(4-methyl-piperazin-1-yl)-propyl]-1H-indol-5-yl}-1H-benzoimidazole]	168
Cc1cc(C)c2nc(-c3ccc4c(c3)c(C)c(C)n4CCCC3CCN(C)CC3)[nH]c2c1 [Example 14, 2-{2,3-Dimethyl-1-[3-(1-methyl-piperidin-4-yl)-propyl]-1H-indol-5-yl}-4,6-dimethyl-1H-benzoimidazole]	84
Cc1c(C)n(CCCC2CCN(C)CC2)c2ccc(-c3nc4c(C)c(F)ccc4[nH]3)cc12 [Example 15, 2-{2,3-Dimethyl-1-[3-(1-methyl-piperidin-4-yl)-propyl]-1H-indol-5-yl}-5-fluoro-4-methyl-1H-benzoimidazole]	110
Cc1c(F)ccc2[nH]c(-c3cccc4c3ccn4CCCCC3CCN(C)CC3)nc12 [Example 16, 5-Fluoro-4-methyl-2-{1-[4-(1-methyl-piperidin-4-yl)-butyl]-1H-indol-4-yl}-1H-benzoimidazole]	23
CN1CCC(CCCCn2ccc3c(-c4nc5c(Cl)cccc5[nH]4)cccc32)CC1 [Example 17, 4-Chloro-2-{1-[4-(1-methyl-piperidin-4-yl)-butyl]-1H-indol-4-yl}-1H-benzoimidazole]	58

Continued, values first:

Ki [nM]	SMILES
85	CN1CCC(CCCCn2ccc3c(-c4nc5cc(C(F)(F)F)ccc5[nH]4)cccc32)CC1 [Example 18, 2-{1-[4-(1-Methyl-piperidin-4-yl)-butyl]-1H-indol-4-yl}-5-trifluoromethyl-1H-benzoimidazole]
404	CN1CCC(CCCCn2ccc3c(-c4nc5cc6c(cc5[nH]4)OCO6)cccc32)CC1 [Example 19, 6-{1-[4-(1-Methyl-piperidin-4-yl)-butyl]-1H-indol-4-yl}-5H-[1,3]dioxolo[4′,5′:4,5]benzo[1,2-d] imidazole]
619	CN1CCC(CCCCn2ccc3c(-c4nc5cc(C(=O)c6ccccc6)ccc5[nH]4)cccc32)CC1 [Example 20, (2-{1-[4-(1-Methyl-piperidin-4-yl)-butyl]-1H-indol-4-yl}-1H-benzoimidazol-5-yl)-phenyl-methanone]
187	CN1CCC(CCCCn2ccc3c(-c4nc5cc6ccccc6cc5[nH]4)cccc32)CC1 [Example 21, 2-{1-[4-(1-Methyl-piperidin-4-yl)-butyl]-1H-indol-4-yl}-1H-naphtho[2,3-d]imidazole]
105	Cc1cc(Cl)cc2[nH]c(-c3cccc4c3ccn4CCCCC3CCN(C)CC3)nc12 [Example 22, 6-Chloro-4-methyl-2-{1-[4-(1-methyl-piperidin-4-yl)-butyl]-1H-indol-4-yl}-1H-benzoimidazole]
98	Cc1cccc2[nH]c(-c3cccc4c3ccn4CCCCC3CCN(C)CC3)nc12 [Example 23, 4-Methyl-2-{1-[4-(1-methyl-piperidin-4-yl)-butyl]-1H-indol-4-yl}-1H-benzoimidazole]
40	CN1CCC(CCCCn2ccc3c(-c4nc5cc(C(C)(C)C)ccc5[nH]4)cccc32)CC1 [Example 24, 5-tert-Butyl-2-{1-[4-(1-methyl-piperidin-4-yl)-butyl]-1H-indol-4-yl}-1H-benzoimidazole]
350	Cc1cc(C)c2nc(-c3ccc4ccn(CCCCC5CCN(C)CC5)c4c3)[nH]c2c1 [Example 25, 4,6-Dimethyl-2-{1-[4-(1-methyl-piperidin-4-yl)-butyl]-1H-indol-6-yl}-1H-benzoimidazole]
880	Cc1c(F)ccc2[nH]c(-c3ccc4ccn(CCCCC5CCN(C)CC5)c4c3)nc12 [Example 26, 5-Fluoro-4-methyl-2-{1-[4-(1-methyl-piperidin-4-yl)-butyl]-1H-indol-6-yl}-1H-benzoimidazole]
750	Cc1cccc2[nH]c(-c3ccc4ccn(CCCCC5CCN(C)CC5)c4c3)nc12 [Example 27, 4-Methyl-2-{1-[4-(1-methyl-piperidin-4-yl)-butyl]-1H-indol-6-yl}-1H-benzoimidazole]
349	CN1CCC(CCCn2cc(Cl)c3cc(-c4nc5cc(C(C)(C)C)ccc5[nH]4)ccc32)CC1 [Example 28, 5-tert-Butyl-2-{3-chloro-1-[3-(1-methyl-piperidin-4-yl)-propyl]-1H-indol-5-yl}-1H-benzoimidazole]
1670	Cc1cc(Cl)cc2[nH]c(-c3ccc4c(c3)c(Cl)cn4CCCC3CCN(C)CC3)nc12 [Example 29, 6-Chloro-2-{3-chloro-1-[3-(1-methyl-piperidin-4-yl)-propyl]-1H-indol-5-yl}-4-methyl-1H-benzoimidazole]
47	CN1CCC(CCCCn2cc(Cl)c3c(-c4nc5cc(C(F)(F)F)ccc5[nH]4)cccc32)CC1 [Example 30, 2-{3-Chloro-1-[4-(1-methyl-piperidin-4-yl)-butyl]-1H-indol-4-yl}-5-trifluoromethyl-1H-benzoimidazole]
118	Cc1c(F)ccc2[nH]c(-c3cccc4c3c(Cl)cn4CCCCC3CCN(C)CC3)nc12 [Example 31, 2-{3-Chloro-1-[4-(1-methyl-piperidin-4-yl)-butyl]-1H-indol-4-yl}-5-fluoro-4-methyl-1H-benzoimidazole]
599	CN1CCC(CCCCn2cc(Cl)c3c(-c4nc5cc(F)c(F)cc5[nH]4)cccc32)CC1 [Example 32, 2-{3-Chloro-1-[4-(1-methyl-piperidin-4-yl)-butyl]-1H-indol-4-yl}-5,6-difluoro-1H-benzoimidazole]
1290	Cc1c(F)ccc2[nH]c(-c3ccc4c(ccn4CCCN4CCNCC4)c3)nc12 [Example 33, 5-Fluoro-4-methyl-2-[1-(3-piperazin-1-yl-propyl)-1H-indol-5-yl]-1H-benzoimidazole]
